Test results as given in article PMC12045974, “T cell toxicity induced by tigecycline binding to the mitochondrial ribosome” (Nature Communications, 2025).
Values joined by “and” are separate entries in the source; they are usually repeats but may differ in a detail not shown here. Equal entries are not always repeated. Where two headings read alike, the source gives them in different places.

Columns and labels:
[1] = tested on: HeLa cells; test: Cell viability assay (CCK-8), HeLa cells; type: cell-based; details: in % (unit assumed)
Method: (§1) Cells were seeded in 96-well plates ranging from 2000 to 15,000 cells per well depending on different cell lines and treated with antibiotics in serial dilutions for 72 h (120 h for the preliminary assays) in a humidified incubator (37 °C, 5% CO2) in 100 μl medium (DMEM with 10% FBS, 2.05 mM L-glutamine (Sigma) for Hek293 and Hela; RPMI-1640 with 10% FBS, 2.05 mM L-glutamine (Sigma), and 55 μM 2-ME (Gibco) for Jurkat T cells and PBMCs). Based on preliminary tests, the number of cells per well was optimized to 2000 for Hela and Hek293, 6000 for Jurkat T cells, and 15,000 for PBMCs. The stocks of antibiotics were prepared by dissolving in DMSO. As control, the same amount of DMSO was added to the non-treated groups. Serial drug dilutions were prepared in the corresponding medium to provide a total of 9 concentrations up to 300 μM for tetracyclines and up to 900 μM for additional bacterial protein synthesis inhibitors. After drug treatment, 10% CCK-8 (Cell Counting Kit-8, Sigma Aldrich) (10 μl per well) of the total volume was added to the cells and incubated for 1–4 h depending on cell lines (1 h for Hela and Hek293; 3 h for Jurkat T cells; 4 h for PBMCs) before the evaluation of the effect of antibiotics on cell viability. […] Results were visually confirmed under the light microscope. Each treatment was performed in technical repeats. Dose-response curves were plotted, mean ± SEM was shown, and half maximal inhibitory concentration (IC50) values were calculated in GraphPad Prism.

[2] = tested on: mitochondrial translation; test: 35S metabolic labeling, de novo mitochondrial translation assay in Jurkat T cells; type: cell-based, human; details: 5 μM, 18 h of treatment
Method: Jurkat T cells were seeded in 6-well plates at a density of 1 million cells/ml and cultured with different concentrations of antibiotics for 18 h in RPMI-1640 medium (with 10% FBS, 2.05 mM L-glutamine (Sigma), and 55 μM 2-ME (Gibco)). After centrifugation, cells were incubated twice for 5 min at 37 °C in Cys-/Met-free medium (DMEM, high glucose, no glutamine, no methionine, no cysteine, supplemented with 10% dialyzed fetal bovine serum, 1× GlutaMax, and sodium pyruvate), followed by 20 min incubation at 37 °C in Cys-/Met-free medium supplemented with 100 µg/ml emetine to inhibit cytosolic translation (only for mitochondrial translation groups). Subsequently, 1 ml Cys-/Met-free medium supplemented with 200 (for cytosolic translation) or 400 µCi (for mitochondrial translation) of EasyTag EXPRESS [^35S] protein labeling mix (methionine and cysteine) (Perkin Elmer) were added to each sample and incubated for 20 min at 37 °C, 5% CO2. Following labeling, cells were washed three times with 1 ml PBS, harvested by centrifugation (400 × g, 10 min, 4 °C), and stored at −20 °C. Cells were lysed by resuspension in 30 µl PBS supplemented with a Complete EDTA-free protease inhibitor cocktail and 50 U Benzonase nuclease (Sigma) and by application of one freeze-thaw cycle. Protein contents were determined by Pierce BCA assay (Thermo Fisher). […]

[3] = tested on: PBMCs; test: Cell viability assay (CCK-8), PBMCs; type: cell-based, human; details: Homo sapiens, PBMC, 72 h, PBMCs, read-out: cell vialibity normalized to Vehicle (DMSO)
Method: as §1, with “Buffy coats were ordered from anonymous blood donors at […]. […] Cells” for “Cells”, “1-4” for “1–4”

[4] = tested on: Jurkat T cells; test: Cell viability assay (CCK-8), Jurkat T cells; type: cell-based, human; details: for cell vialibity normalized to Vehicle (DMSO): in % (unit assumed)
Procedure, shortened: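 This CCK-8 viability assay used Jurkat T cells seeded at 6000 per well and grown in supplemented RPMI-1640, 100 μl per well. Antibiotic stocks in DMSO were diluted in medium to give 9 concentrations, and untreated wells received matching DMSO. After treatment, cells were incubated with 10% CCK-8 for 3 h. Results were normalized to vehicle, technical repeats were plotted as mean ± SEM, and IC50 values were derived.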

## C[C@H]1c2cccc(O)c2C(=O)C2=C(O)[C@]3(O)C(=O)C(C(N)=O)=C(O)[C@@H](N(C)C)[C@@H]3[C@@H](O)[C@@H]21 [Doxycycline, doxycycline]
[1]; Hela 3d, dose 1 μM
  cell vialibity normalized to Vehicle (DMSO): 90.6648 and 96.338 and 89.6672 and 89.6605 and 88.6496
[1]; Hela 3d, dose 5 μM
  cell vialibity normalized to Vehicle (DMSO): 84.5992 and 86.2752 and 82.4709 and 76.6381 and 79.4714
[1]; Hela 3d, dose 10 μM
  cell vialibity normalized to Vehicle (DMSO): 79.4248 and 81.7526 and 84.3598 and 79.9369 and 77.0704
[1]; Hela 3d, dose 50 μM
  cell vialibity normalized to Vehicle (DMSO): 73.5987 and 75.9863 and 80.8614 and 86.3816 and 72.8139
[1]; Hela 3d, dose 100 μM
  cell vialibity normalized to Vehicle (DMSO): 66.9345 and 67.3003 and 64.2675 and 62.1126 and 67.4466
[1]; Hela 5d, dose 1 μM
  cell vialibity normalized to Vehicle (DMSO): 99.6093 and 93.5325 and 94.7977 and 102.368 and 101.019
[1]; Hela 5d, dose 5 μM
  cell vialibity normalized to Vehicle (DMSO): 109.557 and 87.6871 and 94.9961 and 97.211 and 96.619
[1]; Hela 5d, dose 10 μM
  cell vialibity normalized to Vehicle (DMSO): 94.5723 and 89.5534 and 92.3875 and 106.137 and 99.0323
[1]; Hela 5d, dose 50 μM
  cell vialibity normalized to Vehicle (DMSO): 75.251 and 76.5432 and 75.1938 and 78.2863 and 73.7483
[1]; Hela 5d, dose 100 μM
  cell vialibity normalized to Vehicle (DMSO): 73.589 and 66.6556 and 71.8609 and 76.0624 and 69.5949
[2]
  inhibition of mitochondrial translation: weaker inhibition
[3]; dose 0.0457247 μM, Fig. 1A
  viability at 0.0457247 µM: 105%
[3]; dose 0.137174 μM, Fig. 1A
  viability at 0.137174 µM: 100%
[3]; Fig. 1A
  viability at 0.411523 µM: 101%
  viability at 3.7037 µM: 103%
  viability at 33.3333 µM: 89.9%
[3]; Fig. 1B
  viability at 0.411523 µM: 103%
  viability at 3.7037 µM: 135%
  viability at 33.3333 µM: 19.7%
[3]; dose 100 μM, Fig. 1A
  viability at 100 µM: 34.7%
[4]; Homo sapiens, 120 h, Jurkat T cells, after 5 days, read-out: IC50 (cell survival)
  IC50: 6.93 µM
[4]; Jurkat 3d, dose 1 μM
  cell vialibity normalized to Vehicle (DMSO): 102.781 and 111.139 and 99.3878 and 96.4732 and 90.2582
[4]; Jurkat 3d, dose 5 μM
  cell vialibity normalized to Vehicle (DMSO): 115.784 and 120.149 and 111.073 and 98.3364 and 101.664
[4]; Jurkat 3d, dose 10 μM
  cell vialibity normalized to Vehicle (DMSO): 38.4083 and 33.5773 and 30.3966 and 27.7083 and 36.9178
[4]; Jurkat 3d, dose 50 μM
  cell vialibity normalized to Vehicle (DMSO): 15.6109 and 16.1964 and 17.4075 and 16.8885 and 14.799
[4]; Jurkat 3d, dose 100 μM
  cell vialibity normalized to Vehicle (DMSO): 22.9705 and 21.6928 and 21.7195 and 21.0407 and 21.5331
[4]; Jurkat 5d, dose 1 μM
  cell vialibity normalized to Vehicle (DMSO): 114.324 and 76.849 and 78.0026 and 73.9947 and 75.2933
[4]; Jurkat 5d, dose 5 μM
  cell vialibity normalized to Vehicle (DMSO): 77.1127 and 72.762 and 88.7937 and 109.835 and 79.8088
[4]; Jurkat 5d, dose 10 μM
  cell vialibity normalized to Vehicle (DMSO): 12.7884 and 10.534 and 11.8194 and 11.8853 and 12.2149
[4]; Jurkat 5d, dose 50 μM
  cell vialibity normalized to Vehicle (DMSO): 9.394 and 7.97 and 7.877 and 8.029 and 7.9499
[4]; Jurkat 5d, dose 100 μM
  cell vialibity normalized to Vehicle (DMSO): 12.3797 and 14.0541 and 16.7699 and 13.5333 and 13.3553
[4]; Jurkat, 72 h, dose 0.0457247 μM, Fig. 1A
  cell vialibity normalized to Vehicle (DMSO): 104.061 and 104.425 and 103.549
[4]; Jurkat, 72 h, dose 0.137174 μM, Fig. 1A
  cell vialibity normalized to Vehicle (DMSO): 102.734 and 100.282 and 102.099
[4]; Jurkat, 72 h, dose 0.411523 μM, Fig. 1A
  cell vialibity normalized to Vehicle (DMSO): 102.372 and 108.487 and 106.988
[4]; Jurkat, 72 h, dose 1.23457 μM, Fig. 1A
  cell vialibity normalized to Vehicle (DMSO): 101.608 and 103.54 and 101.759
[4]; Jurkat, 72 h, dose 3.7037 μM, Fig. 1A
  cell vialibity normalized to Vehicle (DMSO): 101.93 and 103.62 and 98.3642
[4]; Jurkat, 72 h, dose 11.1111 μM, Fig. 1A
  cell vialibity normalized to Vehicle (DMSO): 87.2939 and 95.2132 and 89.0432
[4]; Jurkat, 72 h, dose 33.3333 μM, Fig. 1A
  cell vialibity normalized to Vehicle (DMSO): 14.5557 and 15.5672 and 13.1235
[4]; Jurkat, 72 h, dose 100 μM, Fig. 1A
  cell vialibity normalized to Vehicle (DMSO): 5.107 and 4.7868 and 3.556
